Results as given in ChEMBL document CHEMBL6134839, “Novel 15-lipoxygenase-1 inhibitor protects cells from RSL3-induced cell death” (Eur J Med Chem, 2025).

How the values were obtained:
[1] = Inhibition of RSL3-induced lipid peroxidation in human HEK293 cells incubated for 3 hrs by C11-BODIPY581/591 probe based flow cytometry analysis; type: functional, cell-based
[2] = target: T1, Polyunsaturated fatty acid lipoxygenase ALOX15 (Homo sapiens, UniProt P16050); assay: Inhibition of human 15-LOX-1 using linoleic acid as substrate preincubated for 10 mins followed by substrate addition
T1 sequence (P16050 whole entry): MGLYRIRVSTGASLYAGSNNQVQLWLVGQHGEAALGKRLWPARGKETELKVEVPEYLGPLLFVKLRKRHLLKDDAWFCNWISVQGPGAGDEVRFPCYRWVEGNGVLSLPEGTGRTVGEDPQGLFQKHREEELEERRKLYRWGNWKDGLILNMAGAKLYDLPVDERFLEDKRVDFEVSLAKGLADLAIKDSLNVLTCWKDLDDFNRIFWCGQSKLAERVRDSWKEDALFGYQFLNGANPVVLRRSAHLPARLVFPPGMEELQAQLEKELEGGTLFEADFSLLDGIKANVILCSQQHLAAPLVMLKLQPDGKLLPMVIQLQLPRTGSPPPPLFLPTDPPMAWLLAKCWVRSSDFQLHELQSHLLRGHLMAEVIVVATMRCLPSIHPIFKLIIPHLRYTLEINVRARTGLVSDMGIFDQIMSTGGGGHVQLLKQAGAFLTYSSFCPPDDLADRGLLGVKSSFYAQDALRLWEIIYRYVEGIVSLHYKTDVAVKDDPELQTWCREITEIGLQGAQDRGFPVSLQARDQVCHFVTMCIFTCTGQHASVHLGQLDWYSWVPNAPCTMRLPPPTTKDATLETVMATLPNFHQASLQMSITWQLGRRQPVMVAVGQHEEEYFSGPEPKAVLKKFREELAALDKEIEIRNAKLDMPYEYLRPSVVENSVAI

- EC50 [1]: 1.2 µM
- IC50 [2]: 10 µM
Structure (SMILES): c1ccc2c(c1)SCc1c-2[nH]c2ccccc12
